# Measured values: PubChem BioAssay (NCI)
#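 The concentration for 50% growth inhibition is given as GI50. Definition used: TGI = concentration required for complete inhibition of growth.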
# Tests used:
# Assay in all cases: inhibition of tumour cell growth, NCI panel, 384-well format
# U251 glioblastoma = test system: U251 glioblastoma
# SW-620 colon = test system: SW-620 colon
# HS 578T breast = test system: HS 578T breast
# MDA-MB-435 melanoma = test system: MDA-MB-435 melanoma
# M14 melanoma = test system: M14 melanoma
# NCI-H522 lung = test system: NCI-H522 lung
# HL-60(TB) leukemia = test system: HL-60(TB) leukemia
# SF-268 CNS = test system: SF-268 CNS
# HOP-92 NSCLC = test system: HOP-92 NSCLC
# 786-0 renal = test system: 786-0 renal
# SK-MEL-28 melanoma = test system: SK-MEL-28 melanoma
# NCI-H226 lung = test system: NCI-H226 lung
# T-47D breast = test system: T-47D breast
# NCI-H322M lung = test system: NCI-H322M lung
# HCT-116 colon = test system: HCT-116 colon
# MCF7 breast = test system: MCF7 breast
# COLO 205 colon = test system: COLO 205 colon
# EKVX NSCLC = test system: EKVX NSCLC
# NCI-H23 lung = test system: NCI-H23 lung
# SK-MEL-5 melanoma = test system: SK-MEL-5 melanoma
# LOX IMVI melanoma = test system: LOX IMVI melanoma
# HT29 colon = test system: HT29 colon
# MOLT-4 leukemia = test system: MOLT-4 leukemia
# ACHN renal = test system: ACHN renal
# CAKI-1 renal = test system: CAKI-1 renal
# HOP-62 NSCLC = test system: HOP-62 NSCLC
# A549 NSCLC = test system: A549 NSCLC
# SK-OV-3 ovarian = test system: SK-OV-3 ovarian
# BT-549 breast = test system: BT-549 breast
# MDA-MB-231 breast = test system: MDA-MB-231 breast
# UACC-257 melanoma = test system: UACC-257 melanoma
# DU-145 prostate = test system: DU-145 prostate
# OVCAR-8 ovarian = test system: OVCAR-8 ovarian
# RPMI-8226 leukemia = test system: RPMI-8226 leukemia
# A498 renal = test system: A498 renal
# SF-539 CNS = test system: SF-539 CNS
# SNB-75 CNS = test system: SNB-75 CNS
# SN12C renal = test system: SN12C renal
# IGROV1 ovarian = test system: IGROV1 ovarian
# HCC-2998 colon = test system: HCC-2998 colon
# PC-3 prostate = test system: PC-3 prostate
# OVCAR-3 ovarian = test system: OVCAR-3 ovarian
# K-562 leukemia = test system: K-562 leukemia
# RXF 393 renal = test system: RXF 393 renal
# NCI-H460 NSCLC = test system: NCI-H460 NSCLC
# SF-295 CNS = test system: SF-295 CNS
# HCT-15 colon = test system: HCT-15 colon
# NCI/ADR-RES ovarian = test system: NCI/ADR-RES ovarian
# KM12 colon = test system: KM12 colon
# TK-10 renal = test system: TK-10 renal
# SNB-19 CNS = test system: SNB-19 CNS
# CCRF-CEM leukemia = test system: CCRF-CEM leukemia
# MALME-3M melanoma = test system: MALME-3M melanoma
# OVCAR-4 ovarian = test system: OVCAR-4 ovarian
# SR leukemia = test system: SR leukemia
# MDA-MB-468 breast = test system: MDA-MB-468 breast
compound,measurement,setting,value
Nc1ccccc1NC(=O)c1ccc(CNc2nccc(-c3cccnc3)n2)cc1,GI50,U251 glioblastoma,159 nM
same,TGI,U251 glioblastoma,333 nM
same,GI50,SW-620 colon,208 nM
same,TGI,SW-620 colon,657 nM
same,GI50,HS 578T breast,217 nM
same,TGI,HS 578T breast,498 nM
same,GI50,MDA-MB-435 melanoma,209 nM
same,TGI,MDA-MB-435 melanoma,419 nM
same,GI50,M14 melanoma,456 nM
same,TGI,M14 melanoma,1640 nM
same,GI50,NCI-H522 lung,301 nM
same,TGI,NCI-H522 lung,1390 nM
same,GI50,HL-60(TB) leukemia,113 nM
same,TGI,HL-60(TB) leukemia,236 nM
same,GI50,SF-268 CNS,225 nM
same,TGI,SF-268 CNS,555 nM
same,GI50,HOP-92 NSCLC,219 nM
same,TGI,HOP-92 NSCLC,823 nM
same,GI50,786-0 renal,390 nM
same,TGI,786-0 renal,2360 nM
same,GI50,SK-MEL-28 melanoma,190 nM
same,TGI,SK-MEL-28 melanoma,368 nM
same,GI50,NCI-H226 lung,543 nM
same,TGI,NCI-H226 lung,2120 nM
same,GI50,T-47D breast,198 nM
same,TGI,T-47D breast,409 nM
same,GI50,NCI-H322M lung,410 nM
same,TGI,NCI-H322M lung,1790 nM
same,GI50,HCT-116 colon,136 nM
same,TGI,HCT-116 colon,350 nM
same,GI50,MCF7 breast,213 nM
same,TGI,MCF7 breast,1090 nM
same,GI50,COLO 205 colon,292 nM
same,TGI,COLO 205 colon,741 nM
same,GI50,EKVX NSCLC,766 nM
same,TGI,EKVX NSCLC,18100 nM
same,GI50,NCI-H23 lung,248 nM
same,TGI,NCI-H23 lung,1320 nM
same,GI50,SK-MEL-5 melanoma,196 nM
same,TGI,SK-MEL-5 melanoma,359 nM
same,GI50,LOX IMVI melanoma,175 nM
same,TGI,LOX IMVI melanoma,322 nM
same,GI50,HT29 colon,285 nM
same,TGI,HT29 colon,1120 nM
same,GI50,MOLT-4 leukemia,150 nM
same,TGI,MOLT-4 leukemia,285 nM
same,GI50,ACHN renal,348 nM
same,TGI,ACHN renal,1200 nM
same,GI50,CAKI-1 renal,318 nM
same,TGI,CAKI-1 renal,1200 nM
same,GI50,HOP-62 NSCLC,255 nM
same,TGI,HOP-62 NSCLC,1260 nM
same,GI50,A549 NSCLC,621 nM
same,TGI,A549 NSCLC,2370 nM
same,GI50,SK-OV-3 ovarian,258 nM
same,TGI,SK-OV-3 ovarian,1380 nM
same,GI50,BT-549 breast,497 nM
same,TGI,BT-549 breast,2390 nM
same,GI50,MDA-MB-231 breast,371 nM
same,TGI,MDA-MB-231 breast,3250 nM
same,GI50,UACC-257 melanoma,169 nM
same,TGI,UACC-257 melanoma,344 nM
same,GI50,DU-145 prostate,302 nM
same,TGI,DU-145 prostate,1420 nM
same,GI50,OVCAR-8 ovarian,242 nM
same,TGI,OVCAR-8 ovarian,1180 nM
same,GI50,RPMI-8226 leukemia,28.2 nM
same,TGI,RPMI-8226 leukemia,75.2 nM
same,GI50,A498 renal,261 nM
same,TGI,A498 renal,1110 nM
same,GI50,SF-539 CNS,473 nM
same,TGI,SF-539 CNS,2490 nM
same,GI50,SNB-75 CNS,386 nM
same,TGI,SNB-75 CNS,7580 nM
same,GI50,SN12C renal,593 nM
same,TGI,SN12C renal,1850 nM
same,GI50,IGROV1 ovarian,235 nM
same,TGI,IGROV1 ovarian,808 nM
same,GI50,HCC-2998 colon,342 nM
same,TGI,HCC-2998 colon,1200 nM
same,GI50,PC-3 prostate,408 nM
same,TGI,PC-3 prostate,8810 nM
same,GI50,OVCAR-3 ovarian,374 nM
same,TGI,OVCAR-3 ovarian,1680 nM
same,GI50,K-562 leukemia,120 nM
same,TGI,K-562 leukemia,357 nM
same,GI50,RXF 393 renal,114 nM
same,TGI,RXF 393 renal,426 nM
same,GI50,NCI-H460 NSCLC,216 nM
same,TGI,NCI-H460 NSCLC,1300 nM
same,GI50,SF-295 CNS,159 nM
same,TGI,SF-295 CNS,306 nM
same,GI50,HCT-15 colon,336 nM
same,TGI,HCT-15 colon,1310 nM
same,GI50,NCI/ADR-RES ovarian,332 nM
same,TGI,NCI/ADR-RES ovarian,1270 nM
same,GI50,KM12 colon,400 nM
same,TGI,KM12 colon,3850 nM
same,GI50,TK-10 renal,244 nM
same,TGI,TK-10 renal,1180 nM
same,GI50,SNB-19 CNS,740 nM
same,TGI,SNB-19 CNS,2540 nM
same,GI50,CCRF-CEM leukemia,131 nM
same,TGI,CCRF-CEM leukemia,266 nM
same,GI50,MALME-3M melanoma,150 nM
same,TGI,MALME-3M melanoma,298 nM
same,GI50,OVCAR-4 ovarian,371 nM
same,TGI,OVCAR-4 ovarian,1670 nM
same,GI50,SR leukemia,32.6 nM
same,TGI,SR leukemia,148 nM
same,GI50,MDA-MB-468 breast,234 nM
same,TGI,MDA-MB-468 breast,592 nM
